Values after ≈ are worked out from the molar mass of the structure shown.
How the values were obtained:
S. aureus ATCC 14154 = assay: Whole cell antimicrobial screen, MIC; assay type: cell-based; settings: Staphylococcus aureus, ATCC14154
Protocol: (§1) Compounds were tested for antimicrobial activity against a panel of organisms according to standard procedures described by the National Committee for Clinical Laboratory Standards (NCCLS document M7-A3, Vol. 13, No. 25, 1993/NCCLS document M27-P, Vol. 12, No. 25, 1992). Compounds were dissolved in 100% dimethyl sulfoxide and were diluted to the final reaction concentration (0.1 μg/mL-500 μg/mL) in microbial growth media. In al cases the final concentration of dimethyl sulfoxide incubated with cells is less than or equal to 1%. For minimum inhibitory concentration (MIC) calculations, 2-fold dilutions of compounds were added to wells of a microtiter plate containing 5×10^4 bacteria or fungal cells in a final volume of 100 lambda of an appropriate media (Mueller-Hinton Broth; Haemophilus Test Media; Mueller-Hinton Broth+5% Sheep Blood; or […]). Plates were incubated overnight at an appropriate temperature (30° C.-37° C.) and optical densities (measure of cell growth) were measured using a commercial plate reader. The MIC value is defined as the lowest compound concentration inhibiting growth of the test organism.

E. faecalis ATCC 33011 = assay: Whole cell antimicrobial screen, MIC; assay type: cell-based; settings: Enterococcus faecalis, ATCC33011
Protocol: as §1

E. faecium ATCC 6569 = assay: Whole cell antimicrobial screen, MIC; assay type: cell-based; settings: Enterococcus faecium, ATCC6569
Protocol: as §1

S. aureus ATCC 6538P = assay: Whole cell antimicrobial screen, MIC; assay type: cell-based; settings: Staphylococcus aureus, ATCC6538P
Protocol: as §1

K. pneumonia ATCC 4352 = assay: Whole cell antimicrobial screen, MIC; assay type: cell-based; settings: Klebsiella pneumoniae, ATCC4352
Protocol: as §1

[1] = tested on: S. saprophyticus ATCC 35552; assay: Whole cell antimicrobial screen, MIC; assay type: cell-based; settings: Staphylococcus saprophyticus, ATCC35552
Protocol: as §1

[2] = tested on: S. epidermidis ATCC 33501; assay: Whole cell antimicrobial screen, MIC; assay type: cell-based; settings: Staphylococcus epidermidis, ATCC33501
Protocol: as §1

B. subtilis ATCC 6633 = assay: Whole cell antimicrobial screen, MIC; assay type: cell-based; settings: Bacillus subtilis, ATCC6633
Protocol: as §1

[3] = target: E. Coli. IleRS (isoleucyl-tRNA synthetase) (Escherichia coli, UniProt P00956); assay: Inhibition of isoleucyl-tRNA synthetase (aminoacylation of tRNA with [3H]isoleucine); assay type: biochemical; settings: E. coli enzyme; irreversible inhibitors: values are 50% of the active enzyme concentration; read-out: IC50 E.Coli. IleRS
Sequence of E. Coli. IleRS (isoleucyl-tRNA synthetase) (P00956 whole entry): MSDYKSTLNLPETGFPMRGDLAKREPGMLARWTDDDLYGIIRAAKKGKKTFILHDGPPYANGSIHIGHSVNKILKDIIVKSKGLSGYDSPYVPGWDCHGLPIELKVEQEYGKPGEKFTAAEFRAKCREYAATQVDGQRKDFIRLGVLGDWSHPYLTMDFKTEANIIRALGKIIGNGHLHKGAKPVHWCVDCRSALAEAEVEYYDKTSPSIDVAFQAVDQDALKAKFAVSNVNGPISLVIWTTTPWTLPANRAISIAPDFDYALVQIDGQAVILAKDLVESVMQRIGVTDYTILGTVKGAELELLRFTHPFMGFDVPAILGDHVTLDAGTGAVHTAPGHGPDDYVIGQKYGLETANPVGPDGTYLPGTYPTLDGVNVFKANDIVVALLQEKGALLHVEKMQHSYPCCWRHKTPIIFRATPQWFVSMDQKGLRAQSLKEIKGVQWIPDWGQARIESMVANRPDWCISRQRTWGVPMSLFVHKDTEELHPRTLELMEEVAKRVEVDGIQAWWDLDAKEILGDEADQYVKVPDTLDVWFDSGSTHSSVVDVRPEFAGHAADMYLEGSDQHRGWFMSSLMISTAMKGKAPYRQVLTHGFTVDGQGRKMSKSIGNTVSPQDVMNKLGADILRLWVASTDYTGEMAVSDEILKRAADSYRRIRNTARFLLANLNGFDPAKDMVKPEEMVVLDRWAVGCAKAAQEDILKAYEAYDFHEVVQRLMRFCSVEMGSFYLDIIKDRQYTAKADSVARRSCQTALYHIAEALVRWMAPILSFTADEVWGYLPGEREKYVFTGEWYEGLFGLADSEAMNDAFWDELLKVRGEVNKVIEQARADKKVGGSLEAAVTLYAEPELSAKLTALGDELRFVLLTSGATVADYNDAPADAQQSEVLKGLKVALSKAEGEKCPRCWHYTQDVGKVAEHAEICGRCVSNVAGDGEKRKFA
Protocol: The extent of aminoacylation of tRNA with isoleucine catalyzed by isoleucyl-tRNA synthetase enzyme was measured by monitoring the incorporation of [3H] isoleucine into trichloroacetic acid-precipitable tRNA in the presence of a compound of Formula I, as compared with activity in the absence of inhibitor. The isoleucyl-tRNA synthetase enzymes are well known in the prior art and can be obtained and purified by known methods (for example see: D. Kern et at., Biochimie, 61, 1257-1272 (1979) and J. Gilbart et al., Antimicrobial Agents and Chemotherapy, 37 (1), 32-38 (1993)).
Isoleucyl-tRNA synthetase enzyme (0.08-2.0 nM, preferably, 0.4 nM) was first pre-incubated at 25° C. with 0.05 mg/ml bovine serum albumin, 10 mM DTT, 2.5% dimethyl sulfoxide, with or without a compound of Formula I, for 20 minutes. At this point a substrate solution (a solution containing the following: ATP, [^3 H]isoleucine, tRNA, HEPES, magnesium chloride, and potassium chloride) was added to give a final concentration of 0.0286 mg/ml bovine serum albumin, 5.7 mM DTT, 4 mM ATP, 5-20 μM [^3 H] isoleucine (1-15 Ci/mmol), 90 μM crude tRNA or 2 μM isoleucine specific tRNA, 1.4% dimethyl sulfoxide, 30 mM HEPES (pH 7.5), 10 mM magnesium chloride, and 50 mM potassium chloride and incubated at 25° C. Aliquots were removed at selected times (e.g. 5, 10, 20 minutes) and applied to 3MM filter paper discs (Whatman) and then dropped into 5% (wt/vol) trichloroacetic acid for >5 minutes. Filters were washed for three 10-minute periods in 5% trichloroacetic acid, rinsed in 95% ethanol and diethyl ether, and radioactivity was measured with Betafluor™ (National Diagnostics) by liquid scintillation counting.
Inhibitor activity is reported in Table II as an IC50 value (inhibitor concentration causing 50% inhibition of enzyme activity) per a known amount of active enzyme. In the case of irreversible inhibitors (1:1 stoichiometry) these values are 50% of the active enzyme concentration. The IC50 (in nM, E. coli) values of representative compounds of the present invention are listed in the second column of Table II.

C. albicans ATCC 10231 = assay: Whole cell antimicrobial screen, MIC; assay type: cell-based; settings: Candida albicans, ATCC10231
Protocol: as §1

S. pyogenes ATCC 8668 = assay: Whole cell antimicrobial screen, MIC; assay type: cell-based; settings: Streptococcus pyogenes, ATCC8668
Protocol: as §1

[4] = tested on: multidrug resistant Streptococcus pyogenes (#OTTO 209); assay: Mouse protection test against multidrug resistant Streptococcus pyogenes; assay type: in vivo, Streptococcus pyogenes; female CD-1 mice; settings: 10 mg/kg sc (positive control), repeated at 4 hours, 7 days
Source text: (§2) The mouse protection test is an industry standard for measuring the efficacy of a test compound in vivo [for examples of this model see J. J. Clement, et al., Antimicrobial Agents and Chemotherapy, 38 (5), 1071-1078, (1994)]. As exemplified below, this test was used to show the in vivo efficacy of the compounds of the present invention against bacteria.
The in vivo activity of compound X against multidrug resistant bacteria was established by infecting female CD-1 mice (Charles River Lab, Massachusettes) weighing 20-24 g intraperitoneally with multidrug resistant Streptococcus pyogenes inoculum. The inoculum was prepared from multidrug resistant Streptococcus pyogenes (resistant to erythromycin, tetracycline, and chloramphenicol, #OTTO 209 obtained from Dr. Pentti Huovinen, National Public Health Institute, Finland) which was cultured in brain heart infusion broth (Baltimore Biological Laboratories, Maryland) at 37° C. for 2 hr, and then 0.1 ml of the culture was diluted with the medium to 1.0 ml for reading its OD at 600 nm (0.12). The turbidity of a 0.5 McFarland standard is equivalent to OD600 0.1, or 10^8 cfu/ml. Then, 4×10^8 cfu of the bacteria (333 μl was added to 20 ml of phosphate buffered saline (Sigma P-0261 ) containing 10 % hog gastric mucin (Sigma M-2378). All animals were injected with 0.5 ml of the inoculum, equivalent to 10^7 cfu/mouse which is the dose causing ~100% death of the animals without treatment.
Compound X (60 mg) was dissolved in 6.0 ml of 0.05M Tris.HCl (pH 8.8) to give a solution of 10 mg/ml. This solution was serially diluted two times with 0.05M Tris.HCl by 5-fold (1.0 ml to 5.0 ml) to give 2 and 0.4 mg/ml solutions. The known antibiotic vancomycin HCl (Sigma V-2002, in normal saline, 1 mg/ml, pH 6.0-7.0) was used as a positive control. All the solutions were filtered with 0.2 μm Nalgene syringe filter. Immediately after the bacterial inoculation, group 1 animals were subcutaneously (sc) injected with 0.05M Tris.HCl (no antibiotic) and groups 2 to 4 were given compound X sc at 4, 20 and 100 mg/kg, respectively. Group 5 animals received vancomycin sc at 10 mg/kg. These injections were repeated once at 4 hours after the inoculation for the respective groups. The injection volume at each time was 10 ml per kilogram of body weight. The 50% protective dose (PD50) is calculated on the basis of the number of mice surviving 7 days after inoculation.

[5] = tested on: Streptococcus pyogenes (ATCC 8668); assay: Mouse protection test against wild type Streptococcus pyogenes; assay type: in vivo, Streptococcus pyogenes; female CD-1 mice; settings: 10 mg/kg sc (positive control), repeated at 4 hours, 7 days
Source text: as §2
The in vivo antibacterial activity of compound X was established by infecting female CD-1 mice (Charles River Lab, Massachusettes) weighing 20-24 g intraperitoneally with Streptococcus pyogenes inoculum. The inoculum was prepared from Streptococcus pyogenes (ATCC 8668) which was cultured in brain heart infusion broth (Baltimore Biological Laboratories,Maryland) at 37° C. for 18 hr, and then 0.1 ml of the overnight culture was diluted with the medium to 5.0 ml for reading its OD at 600 nm (0.017). The turbidity of a 0.5 McFarland standard is equivalent to OD600 0.1, or 10^8 cfu/ml. Then, 8×10^5 cfu of the bacteria (940 μl of 1:1000 overnight culture) was added to 20 ml of phosphate buffered saline (Sigma P-0261 ) containing 5% hog gastric mucin (Sigma M-2378). All animals were injected with 0.5 ml of the inoculum, equivalent to 2×10^4 cfu/mouse which is the dose causing ~100% death of the animals without treatment.
Compound X (50 mg) was dissolved in 5.0 ml of 0.05M Tris.HCl (pH 8.8) to give a solution of 10 mg/ml. This solution was serially diluted with 0.05 M Tris.HCl by 5-fold (1.0 ml to 5.0 ml) to give 2, 0.4 and 0.08 mg/ml solutions. The known antibiotic erythromycin (Sigma E-6376, in phosphate buffered saline, 1 mg/ml, pH 7.0) was used as a positive control. All the solutions were filtered with 0.2 μm Nalgene syringe filter. Immediately after the bacterial inoculation, group 1 animals were subcutaneously (sc) injected with 0.05M Tris.HCl (no antibiotic) and groups 2 to 5 were given compound X sc at 0.8, 4, 20, and 100 mg/kg, respectively. Group 6 animals received erythromycin sc at 10 mg/kg. These injections were repeated once at 4 hours after the inoculation for the respective groups. The injection volume at each time was 10 ml per kilogram of body weight. The 50% protective dose (PD50) is calculated on the basis of the number of mice surviving 7 days after inoculation.

Compound | MIC (S. aureus ATCC 14154) | MIC (E. faecalis ATCC 33011) | MIC (E. faecium ATCC 6569) | MIC (S. aureus ATCC 6538P) | MIC (K. pneumonia ATCC 4352) | MIC [1] | MIC [2] | MIC (B. subtilis ATCC 6633) | IC50 [3] | MIC (C. albicans ATCC 10231) | MIC (S. pyogenes ATCC 8668) | Protective % [4] | Number of Alive ([4]; of 5 mice) | Protective % [5] | Number of Alive ([5]; of 5 mice)
CC[C@H](C)[C@H](N)C(=O)NS(=O)(=O)OC[C@H]1O[C@@H](CCn2nnc(-c3ccc(-c4ccccn4)nc3)n2)[C@H](O)[C@@H]1O [XXV] | 100 mg/L (≈ 173 µM) | > 500 mg/L | > 500 mg/L | 500 mg/L (≈ 867 µM) | > 500 mg/L | 50 mg/L (≈ 86.7 µM) | 25 mg/L (≈ 43.4 µM) | > 500 mg/L | 0.5 nM | – | – | – | – | – | –
CC[C@H](C)[C@H](N)C(=O)NS(=O)(=O)OC[C@H]1O[C@@H](CCn2nnc(-c3ccc(OCc4ccc([N+](=O)[O-])s4)cc3)n2)[C@H](O)[C@@H]1O [XVIII] | 25 mg/L (≈ 38.1 µM) | > 500 mg/L | > 500 mg/L | 5 mg/L (≈ 7.63 µM) | – | 5 mg/L (≈ 7.63 µM) | 5 mg/L (≈ 7.63 µM) | – | 0.6 nM | 100 mg/L (≈ 153 µM) | 2 mg/L (≈ 3.05 µM) | – | – | – | –
CC[C@H](C)[C@H](N)C(=O)NS(=O)(=O)OC[C@H]1O[C@@H](CCn2nnc(-c3ccc(Oc4ccc([N+](=O)[O-])s4)cc3)n2)[C@H](O)[C@@H]1O [XXXI] | 10 mg/L (≈ 15.6 µM) | > 500 mg/L | 100 mg/L (≈ 156 µM) | 5 mg/L (≈ 7.79 µM) | – | 2 mg/L (≈ 3.12 µM) | 5 mg/L (≈ 7.79 µM) | – | 1.3 nM | – | 4 mg/L (≈ 6.23 µM) | – | – | – | –
CN[C@H](CC(C)C)C(=O)N[C@H]1C(=O)N[C@@H](CC(N)=O)C(=O)N[C@H]2C(=O)N[C@H]3C(=O)N[C@H](C(=O)N[C@H](C(=O)O)c4cc(O)cc(O)c4-c4cc3ccc4O)[C@H](O)c3ccc(c(Cl)c3)Oc3cc2cc(c3O[C@@H]2O[C@H](CO)[C@@H](O)[C@H](O)[C@H]2O[C@H]2C[C@](C)(N)[C@H](O)[C@H](C)O2)Oc2ccc(cc2Cl)[C@H]1O [Vancomycin, vancomycin, reference compound] | – | – | – | – | – | – | – | – | – | – | – | 100% | 5 | – | –
CC[C@H](C)[C@H](N)C(=O)NS(=O)(=O)OC[C@H]1O[C@@H](CCn2nnc(-c3ccc(-c4ccc(F)c(F)c4)cc3)n2)[C@H](O)[C@@H]1O [XXIII] | 100 mg/L (≈ 164 µM) | – | 100 mg/L (≈ 164 µM) | 50 mg/L (≈ 81.9 µM) | 100 mg/L (≈ 164 µM) | 25 mg/L (≈ 40.9 µM) | 10 mg/L (≈ 16.4 µM) | 50 mg/L (≈ 81.9 µM) | 2.9 nM | 10 mg/L (≈ 16.4 µM) | – | – | – | – | –
CC[C@H]1OC(=O)[C@H](C)[C@@H](O[C@H]2C[C@@](C)(OC)[C@@H](O)[C@H](C)O2)[C@H](C)[C@@H](O[C@@H]2O[C@H](C)C[C@H](N(C)C)[C@H]2O)[C@](C)(O)C[C@@H](C)C(=O)[C@H](C)[C@@H](O)[C@]1(C)O [Erythromycin, erythromycin, reference compound] | – | – | – | – | – | – | – | – | – | – | – | – | – | 100% | 5
CC[C@H](C)[C@H](N)C(=O)NS(=O)(=O)OC[C@H]1O[C@@H](CCn2nnc(Cc3ccc(Oc4ccccc4)cc3)n2)[C@H](O)[C@@H]1O [XXX] | 500 mg/L (≈ 827 µM) | 500 mg/L (≈ 827 µM) | 100 mg/L (≈ 165 µM) | 100 mg/L (≈ 165 µM) | – | 100 mg/L (≈ 165 µM) | 25 mg/L (≈ 41.3 µM) | – | 2.7 nM | > 200 mg/L | – | – | – | – | –

Reference: US5726195A, “Aminoacyl adenylate mimics as novel antimicrobial and antiparasitic agents” (Cubist Pharmaceuticals, Inc., priority 1996, dated 1998)
